Structures can show the parent of a compound that is named as a salt.
Tested on: Mouse Writhing
Assay: mouse writhing assay (acetic acid-induced writhing)
Format: in vivo, albino male mice
Conditions: for Percent Inhibition of Writhing: Codeine Sulfate 10 mg/kg + Saline, oral; for Codeine Sulfate Induced Inhibition of Mouse Writhing ED₅₀: codeine sulfate subcutaneous, writhing assessed 30 minutes later
Text: Writhing, which is characterized by contraction of the abdominal musculature, extension of the hindlegs, and rotation of the trunk, was induced in albino male mice. The extent to which writhing is reduced following administration of a test compound is an indication of the analgesic activity of that compound.
Mice, weighing 18-24 grams, were fasted overnight and given the test compounds by gavage or subcutaneously. Writhing was then induced by the intraperitoneal administration of acetic acid (0.55 to 0.60 percent). Each treatment group consisted of five mice. The total number of writhes for the treatment group was determined during a 10-minute observation period starting five minutes after acetic acid administration. […] The results in the mouse writhing assay are presented either as the effective dose in mg/kg of the respective test compound required to inhibit induced writhing in the test animals by fifty percent (ED₅₀), or as the percent inhibition of writhing at the particular dose of the test compound administered.

SMILES | Percent Inhibition of Writhing (30 minutes after administration) | Percent Inhibition of Writhing (60 minutes after administration) | Percent Inhibition of Writhing (120 minutes after administration) | Percent Inhibition of Writhing (180 minutes after administration) | Percent Inhibition of Writhing (240 minutes after administration) | Percent Inhibition of Mouse Writhing (Codeine Sulfate 10 mg/kg oral, Fluoxetine Hydrochloride 0 mg/kg, writhing assessed 60 minutes later) | inhibition at 10 mg/kg (Mus musculus, 1 h, Codeine Sulfate 10 mg/kg oral, Fluoxetine Hydrochloride 0 mg/kg, writhing assessed 60 minutes later, read-out: Percent Inhibition of Mouse Writhing) | Codeine Sulfate Inhibition of Mouse Writhing ED₅₀ (codeine sulfate oral, alone (Fluoxetine Hydrochloride 0), writhing assessed 60 minutes later) | Codeine Sulfate Inhibition of Mouse Writhing ED₅₀ (codeine sulfate oral, simultaneously with Fluoxetine Hydrochloride 20 mg/kg oral, writhing assessed 60 minutes later) | Codeine Sulfate Induced Inhibition of Mouse Writhing ED₅₀ (alone (Fluoxetine Hydrochloride 0 mg/kg s.c.)) | Codeine Sulfate Induced Inhibition of Mouse Writhing ED₅₀ (simultaneously with Fluoxetine Hydrochloride 20 mg/kg s.c.) | Codeine Sulfate Inhibition of Mouse Writhing ED₅₀ (pretreatment Fluoxetine Hydrochloride (20 mg/kg) oral three hours before, codeine sulfate oral 15 minutes prior to assessment of writhing) | Codeine Sulfate Inhibition of Mouse Writhing ED₅₀ (pretreatment Saline oral three hours before, codeine sulfate oral 15 minutes prior to assessment of writhing) | ED₅₀ of codeine sulfate alone relative to the amount needed when 20 mg/kg of fluoxetine hydrochloride was concomitantly administered (subcutaneous, 30 minutes prior to the assessment of mouse writhing) | analgesic activity (fluoxetine hydrochloride alone, doses up to 160 mg/kg, 30-180 minutes before writhing was induced)
COc1ccc2c3c1O[C@H]1[C@@H](O)C=C[C@H]4[C@@H](C2)N(C)CC[C@@]341 [Codeine Sulfate, codeine sulfate] | 40% | 38% | 37% | 35% | 22% | no inhibition | 0% | 27.0 mg/kg | 15.4 mg/kg | 9.8 mg/kg | 2.8 mg/kg | 9.4 mg/kg | 18.6 mg/kg | 3.5 times | 
CNCCC(Oc1ccc(C(F)(F)F)cc1)c1ccccc1 (stereo not drawn) [fluoxetine hydrochloride, 3-(4-trifluoromethylphenoxy)-N-methyl-3-phenylpropylamine] |  |  |  |  |  |  |  |  |  |  |  |  |  |  | devoid of analgesic activity

From patent EP0193355B1, “Analgesic composition” (ELI LILLY AND COMPANY, priority 1985, dated 1986)
